Here are results for one compound from patent US20250320190A1, “Novel Inhibitors of Leucine Carboxyl Methyltransferase-1 (LCMT-1) and Methods of Use Thereof” (Temple University-Of The Commonwealth System of Higher …, priority 2024, published 2025).

In one data set the test system is MCF7 cells. Briefly: Annexin V assay. Type of data set: cell-based, human. The note with it: 5-20 μM, 48 hours. As to the method:
(§1) MCF7, MDA-MB-231 and Rosi cells were treated with LB-100 and Compound 2 at 5-20 μM concentrations. After 48 hours, cells were lifted with Accutase and washed twice with PBS (pH 7.4) with 10% FBS. Cells were resuspended in annexin V binding buffer (10 mM HEPES (pH 7.4), 140 mM NaCl and 2.5 mM CaCl2)) and labeled with FITC-anti-Annexin V and 7-AAD (Biolegend, FITC Annexin V Apoptosis Detection Kit with 7-AAD, catalog #640922). Cell surface annexin V expression was assessed with flow cytometry.

Another data set concerns MDA-MB-231 cells. In words: Annexin V assay. Type of data set: cell-based, human. The following applies: 5-20 μM, 48 hours. As to the method: as §1
The next data set has as its system Rosi cells. Briefly: Annexin V assay. The following applies: 5-20 μM, 48 hours. In kind it is cell-based, human. As to the method:
as §1

Another data set is described as follows: Plasma protein binding. The note with it: read-out: Plasma Protein Binding (bound fraction) (converted). In kind it is in vitro ADME. An excerpt:
(§2) There is no cause for concern at this stage since there are multiple strategies and reagents for enhancing aqueous solubility for animal in vivo studies (Savjani, K. T., A. K. Gajjar and J. K. Savjani, 2012, ISRN Pharm 2012: 195727.). […] While target tissue exposure is dependent on free, unbound fractions in the plasma, plasma protein binding can protect compounds from hepatic metabolism. Thus, in vivo metabolism and excretion are often determined by a balance between these two properties. In vivo half-life is a complicated property impacted upon by multiple factors and is difficult to predict. […] While these numbers are somewhat low for a drug candidate, they are acceptable for proof of concept tool molecules which can be given multiple times per day and at higher doses to saturate metabolism.

A short description of the next data set: Plasma stability. In kind it is in vitro ADME. The following applies: mouse plasma; read-out: Plasma Stability (t1/2).
Description: as §2

A further data set deals with Jurkat cells. Briefly: Cytotoxicity assay (Ghost Dye 710 flow cytometry). Type of data set: cell-based. The note with it: Homo sapiens, 48 hours. As to the method:
(§3) Jurkat and THP-1 cells were seeded in 6-well plates at a density of 2.5×10^5 cells/mL. After 24 hours LCMT-li was added at various concentrations. After 48 hours, cells were pelleted and washed twice with ice-cold phosphate-buffered saline (PBS). Cells were stained with Ghost Dye™ 710 (Cytek®, Bethesda, Maryland) viability dye, 0.1 μL/mL in PBS on ice in the dark for 30 minutes. Cells were pelleted and washed twice with ice-cold PBS with 10% FBS. Cells were pelleted and fixed with 4% formaldehyde in PBS on ice for 15 minutes. Cells were pelleted and resuspended in PBS with 5% bovine serum albumin (BSA). Cells were analyzed with a Becton-Dickinson FACSymphony™ flow cytometer with at least 3 replicates; 3×10^4 cells were analyzed with each replicate for statistical significance.
(§4) Statistical analyses were performed with GraphPad Prism software (version 10.4.1). Effective concentrations that inhibited 50% of cells (EC50, log agonist versus response) were estimated with nonlinear fit curves. Absorbance values for cytotoxity assays and relative densities for Western blot assays were compared using Kruskal-Wallis analyses of variance with Dunn's correction for multiple comparisons. For flow cytometric analyses, two-way analyses of variance with Tukey's correction for multiple comparisons were used.

For another data set, the system named is THP-1 cells. In words: Cytotoxicity assay (Ghost Dye 710 flow cytometry). Type of data set: cell-based. The note with it: Homo sapiens, 48 hours. As to the method:
as §3, §4

In another data set the target is T1, rhLCMT-1 (Homo sapiens, UniProt Q9UIC8).
T1 construct: purchased SignalChem (Richmond, British Columbia, Canada)
In words: rhLCMT-1 activity assay (dot immunoblot). Type of data set: biochemical. The following applies: each inhibitor 50 μM; 20 μM SAM; 37° C. for 30 minutes. As to the method:
Recombinant human LCMT-1 (rhLCMT-1) and rhPP2Ac were obtained from SignalChem (Richmond, British Columbia, Canada). Methyltransferase assays were performed with 100 ng rhLCMT-1 and 91.62 ng rhPP2Ac (2:1 molar ratio) (28) in reaction buffer containing 20 mM Tris (pH 8.0), 50 mM NaCl, 1 mM EDTA. rhLCMT-1 was incubated with Compound 1 (Chemspace, San Jose, California), Compound 2 (Akos Consulting and Solutions, Amtsgericht, Freiburg, Germany) or sinefungin, a SAM analogue, (Active Motif, Carlsbad, California), each at 50 μM final concentration, for 10 minutes at room temperature. rhPP2Ac was added to the reactions with 20 μM (final concentration) SAM (New England Biolabs, Ipswich, Massachusetts, FIG. 9). […] Reactions were incubated at 37° C. for 30 minutes (FIG. 10). Because the inhibitors gave false positive results with the secondary reactions used in colorimetric and bioluminescent methyltansferase assays, LCMT-1 activity was assessed using dot immunoblots. Reactions were applied to nitrocellulose membranes (Cytiva, Marlborough, Massachusetts). […] Membranes were treated with infrared (IR)-dye anti-mouse antibody (Li-Cor, Lincoln, Nebraska, catalog #926-32210, 1:20,000 dilution) and densities were measured with Li-Cor Image Studio (version 5.2) software. rhLCMT-1 inhibition assays were performed three times, each time with five replicates for each condition.

T1 sequence (Q9UIC8 whole entry): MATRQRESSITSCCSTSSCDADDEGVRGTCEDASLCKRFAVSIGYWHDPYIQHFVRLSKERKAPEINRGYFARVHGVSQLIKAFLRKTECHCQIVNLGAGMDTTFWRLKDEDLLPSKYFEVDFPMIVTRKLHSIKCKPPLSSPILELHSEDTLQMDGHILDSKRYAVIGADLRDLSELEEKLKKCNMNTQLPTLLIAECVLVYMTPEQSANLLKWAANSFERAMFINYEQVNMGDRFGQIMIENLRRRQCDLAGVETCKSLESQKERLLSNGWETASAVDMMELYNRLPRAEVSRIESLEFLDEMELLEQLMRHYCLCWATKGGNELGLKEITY

A word on the EC50: it is the concentration needed to bring the measured effect to its halfway point. A higher EC50 goes with a need for much substance. For the compound `COC(=O)c1c(NC(=O)c2ccccc2C)sc(C(=O)Nc2cccc(C)c2)c1C` [Compound 2, methyl 4-methyl-2-[(2-methylbenzoyl)amino]-5-[[(3-methylphenyl)amino]carbonyl]-3-thiophenecarboxylate], the “apoptosis (cell surface annexin V expression)” value with MCF7 cells was “decreased cell surface annexin V”; in the data set on MDA-MB-231 cells, “increased cell surface annexin V expression”; in the data set with Rosi cells it was “did not induce apoptosis”. Further, the fraction unbound in “Plasma protein binding” is 0.029. The half-life in the data set “Plasma stability” is greater than 3 h. Also, the EC50 in the data set on Jurkat cells was 224 µM; in the data set on THP-1 cells, 10.4 µM. Further, the “methylation of rhPP2Ac by rhLCMT-1” value on rhLCMT-1 is recorded as “inhibited methylation of rhPP2Ac to the same degree as the SAM analogue sinefungin”.
